target: IDO1 (Homo sapiens, UniProt P14902); experiment: IDO1 Cellular Assay in Hela Cells Stimulated with IFNγ; format: cell-based; details: IFNγ 100 ng/mL, 300 uM L-tryptophan, about 48 hours, fluorescence readout, read-out: IDO1 HELA Cell Assay, IC50
Experimental: Biological Assays IDO1 Cellular Assay in Hela Cells Stimulated with IFNγ
Hela cells were cultured in complete Hela culture medium ([…], 10% heat-inactivated fetal bovine serum) and expanded to about 1×10^9 cells. The cells were then collected and frozen down at 10×10^6 cells/vial in 1 mL frozen medium (90% complete Hela culture medium, 10% DMSO).
Compounds to be tested were serially diluted in ten 3-fold steps in DMSO starting from 10 mM DMSO stocks in Echo low volume plate(s). Compound dilutions or DMSO alone were then dispensed from the dilution plate(s) into Greiner black 384-well assay plate(s) (catalog #781086, 50 nL/well) using an Echo 550 acoustic liquid handler (Labcyte).
Frozen Hela cells were thawed and transferred into Hela assay medium (99% complete Hela culture medium, 1% Pen/Strep) with 20 mL medium/vial of cells. The cells were spun down at 250 g in a table top centrifuge for 5 min and suspended in same volume of Hela assay medium. […] Sterile L-tryptophan were added to the cells with final concentration of 300 uM L-tryptophan. A small aliquot (2 mL/plate) of Hela cells were set aside and were not treated with IFNγ, to serve as the Max-E control. The rest of Hela cells were added with sterile IFNγ (Cat #285-IF, R & D systems) with a final concentration of 100 ng/mL.
Hela cells with and without IFNγ were dispensed to the respective wells of 384-well assay plates containing the compounds. The plates were incubated for about 48 hours at a 37° C., 5% CO2 incubator. Afterwards, 12 μL of 0.5 M methyl isonipecotate in dimethyl sulfoxide were added into each well and the plates were sealed and incubated at 37° C. without CO2 overnight. The plates were centrifuged for 1 min at 200×g. The resulting fluorescence was measured in a Spectramax plate reader (Molecular Devices) with a 400 nm excitation filter and a 510 nm emission filter.
Potencies were calculated by […] least squares fit to the four parameter logistic IC50 equation.

Sequence of IDO1 (P14902 whole entry): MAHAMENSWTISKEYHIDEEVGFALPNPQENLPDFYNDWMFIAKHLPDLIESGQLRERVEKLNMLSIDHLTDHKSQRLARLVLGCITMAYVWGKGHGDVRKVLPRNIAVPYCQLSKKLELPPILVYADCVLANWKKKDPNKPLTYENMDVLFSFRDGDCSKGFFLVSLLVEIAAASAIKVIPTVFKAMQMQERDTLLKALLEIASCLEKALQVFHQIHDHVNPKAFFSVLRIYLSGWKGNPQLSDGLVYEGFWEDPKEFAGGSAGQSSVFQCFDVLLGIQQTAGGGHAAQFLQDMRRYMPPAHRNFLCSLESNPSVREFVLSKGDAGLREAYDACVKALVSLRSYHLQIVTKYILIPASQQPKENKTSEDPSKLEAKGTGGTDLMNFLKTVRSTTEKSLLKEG

SMILES	IC50 [nM]
C[C@H](C(=O)Nc1ccc(F)cc1)C12CC(NC(=O)Nc3ccc(F)c(Cl)c3)(C1)C2 [Example 83, (S)-2-(3-(3-(3-chloro-4-fluorophenyl)ureido)bicyclo [1.1.1]pentan-1-yl)-N-(4-fluorophenyl)propanamide]	39
CC(C(=O)Nc1ccc(F)cc1)C12CC(NC(=O)c3ccn4ccccc34)(C1)C2 (centres unmarked) [Example 127, N-[3-[2-(4-fluoroanilino)-1-methyl-2-oxo-ethyl]-1-bicyclo[1.1.1]pentanyl]indolizine-1-carboxamide]	186
CC(C(=O)Nc1ccc(Cl)cc1)C12CC(NC(=O)c3cccc(Cl)c3)(C1)C2 (single isomer, unassigned) [Example 6, 3-Chloro-N-(3-(1-((4-chlorophenyl)amino)-1-oxopropan-2-yl)bicyclo [1.1.1]pentan-1-yl) Benzamide]	38.6
CC(C(=O)Nc1ccc(F)cc1)C12CC(NC(=O)c3cccc4cnccc34)(C1)C2 (centres unmarked) [Example 134, N-[3-[2-(4-fluoroanilino)-1-methyl-2-oxo-ethyl]-1-bicyclo[1.1.1]pentanyl]isoquinolin-2-ium-5-carboxamide]	267
CC(C(=O)Nc1ccc(F)cc1)C12CC(NC(=O)c3cccc4c3CC(=O)N4)(C1)C2 (centres unmarked) [Example 121, N-[3-[2-(4-fluoroanilino)-1-methyl-2-oxo-ethyl]-1-bicyclo[1.1.1]pentanyl]-2-oxo-indoline-4-carboxamide]	131
Cc1nc(C)c(C(=O)NC23CC(C(C)C(=O)Nc4ccc(F)cc4)(C2)C3)s1 (centres unmarked) [Example 136, N-[3-[2-(4-fluoroanilino)-1-methyl-2-oxo-ethyl]-1-bicyclo[1.1.1]pentanyl]-2,4-dimethyl-thiazole-5-carboxamide]	318
C[C@H](C(=O)Nc1ccc(F)cc1)C12CC(NC(=O)c3cccc(Cl)c3F)(C1)C2 [Example 51, 3-chloro-2-fluoro-N-[3-[(1S)-2-(4-fluoroanilino)-1-methyl-2-oxo-ethyl]-1-bicyclo[1.1.1]pentanyl]benzamide]	226
C[C@H](C(=O)Nc1ccc(F)cc1)C12CC(NC(=O)c3ccc(Cl)nc3)(C1)C2 [Example 60, 6-chloro-N-[3-[(1S)-2-(4-fluoroanilino)-1-methyl-2-oxo-ethyl]-1-bicyclo[1.1.1]pentanyl]pyridin-1-ium-3-carboxamide]	157
C[C@H](C(=O)Nc1ccc(F)cc1)C12CC(NC(=O)c3ccc(C#N)c(Cl)c3)(C1)C2 [Example 150, (S)-3-chloro-4-cyano-N-(3-(1-((4-fluorophenyl)amino)-1-oxopropan-2-yl)bicyclo[1.1.1]pentan-1-yl)benzamide]	48.3

Compounds with a lower IC50, results first:

IC50 [nM]	SMILES
23.6	C[C@H](C(=O)Nc1ccc(F)cc1)C12CC(NC(=O)c3ccc(F)c(F)c3)(C1)C2 [Example 69, (S)-3,4-Difluoro-N-(3-(1-((4-fluorophenyl)amino)-1-oxopropan-2-yl)bicyclo[1.1.1]pentan-1-yl)benzamide]
20.7	O=C(NC12CC(C3(C(=O)Nc4ccc(F)cc4)COC3)(C1)C2)c1cccc(Cl)c1 [Example 104, 3-(3-(3-Chlorobenzamido)bicyclo[1.1.1]pentan-1-yl)-N-(4-fluorophenyl)oxetane-3-carboxamide]
5.02	C[C@@H](C(=O)Nc1ccc(F)cc1)C12CC(NC(=O)c3cccc(C(F)(F)F)c3)(C1)C2 [Example 42, N-[3-[(1R)-2-(4-fluoroanilino)-1-methyl-2-oxo-ethyl]-1-bicyclo[1.1.1]pentanyl]-3-(trifluoromethyl)benzamide]
1.72	C[C@H](C(=O)Nc1ccc(F)cc1)C12CC(NC(=O)c3ccc(F)c(Cl)c3)(C1)C2 [Example 48, 3-chloro-4-fluoro-N-[3-[(1S)-2-(4-fluoroanilino)-1-methyl-2-oxo-ethyl]-1-bicyclo[1.1.1]pentanyl]benzamide]
6.43	C[C@@H](C(=O)Nc1ccc(C(F)(F)F)cc1)C12CC(NC(=O)c3ccc(Cl)c(Cl)c3)(C1)C2 [Example 92, (R)-3,4-dichloro-N-(3-(1-oxo-1-((4-(trifluoromethyl)phenyl)amino)propan-2-yl)bicyclo[1.1.1]pentan-1-yl)benzamide]
